From patent US7868047B2, “Anti-inflammatory and psoriasis treatment and protein kinase inhibition by hydroxy stilbenes and novel stilbene derivatives and analogues” (Welichem Biotech Inc., priority 1999, dated 2011)

How the values were obtained:
psoriasis = assay: 1% cream on volunteers with psoriasis; type: in vivo, human; details: topical, once per day, vs control cream
Protocol: The biological activity of the compounds of this invention can be determined by measurement of the effect of the test compound in vivo because there is no animal model suitable for the diseases. The compounds were tested on volunteers. In these tests, representative compound of this invention, i.e., 3,5-dihydroxy-4-isopropylstilbene is active in reducing or eliminating symptoms of psoriasis and eczema.
A 1% cream of 3,5-dihydroxy-4-isopropylstilbene was prepared for tests on volunteers. Three volunteers, each with a long psoriasis history, were recruited for the tests. Neither of them was on any medication a month before the initiation of the test.
Volunteer 1, person, with scalp psoriasis for more than 15 years. They had used various conventional drugs and treatments, include, steroids, phototherapy and other medicine during the course of their illness. All of these treatments had no or very limited effect on this psoriasis.
Volunteer 2, person, with plaques on their back. They had used hydrocortisone before and stopped using it because of side effects.
The volunteers were treated once per day by applying the creams once per day on top of the affected area with the basic cream as the control (except for volunteer 3). […] The cream of the invention contained 1% 3,5-dihydroxy-4-isopropylstilbene. The control cream was identical except that it contained no 3,5-dihydroxy-4-isopropylstilbene. […]

eczema = assay: 1% cream on volunteer with eczema; type: in vivo, human; details: topical, right side, control triamcinolone acetonide 0.5% left side
TPA-induced ear edema = TPA-induced ear edema model; type: in vivo, mouse; details: 0.3% single topical, TPA 0.01%, ear thickness 6 hours after TPA
Protocol: Experiment: Three representative compounds, 5-(2-phenylethenyl)-2-1-propyl-1,3-benzenediol, as previously reported, a closely related stilbene derivative (WO 0142231) and compound 39B, a novel compound of the current invention, were assayed against the edema on female mice (Balb/c) aged 10-12 weeks, using 0.01% Calcitriol (a commercial standard) as a positive control. Phorbol-12-myristate-13-acetate (TPA) was used as the edema inducer. TPA and the test compounds were all dissolved in 100% ethanol and 20 μl applied on the right ear of the mouse with six mice per group. The TPA concentration used was 0.01% (w/v). Ear thickness was measured 6 hours after TPA treatment to determine if edema was decreased. In each experiment replicated groups of TPA treated mice were treated with either 5-(2-phenylethenyl)-2-1-propyl-1,3-benzenediol, Calcitriol, compound 39B or only ethanol, and the level of inhibition was obtained by measuring the thickness of the ear and expressing the difference in thickness of the treated ear from that of the ethanol treated ear, as a percentage.

DSS-induced IBD = assay: DSS (2%) IBD mouse model, preventive experiment; type: in vivo; details: 500 mg/kg/day oral with 2% DSS, day 7
Protocol: To assess the in vivo efficacy for preventive and therapeutic activities of these compounds on IBD, two experiments were designed and tested using the dextran sulfate sodium (DSS) experimental mouse model for human IBD. For the preventive experiment, compounds 9A and 39B were simultaneously administrated orally with 2% DSS at the dose of 500 mg/kg/day. Vehicle alone and glucocorticoid (dexamethasone 20 mg/kg/day) were used as controls. At day 7, mice were sacrificed, examined for stool appearance, diarrhea and colon macroscopic damage including ulceration, inflammation and adhesion. Colon samples were also taken and fixed in 10% formalin for histological assessment of architecture, ulceration, inflammation and serosal damage.

[1] = test system: acute colon inflammation induced by 5% DSS; assay: DSS (5%) acute colon inflammation mouse model, therapeutic experiment; type: in vivo; details: for Bleeding score / Diarrheal score: day seven, mean ± SEM, n = 9, 1 = normal; for Bleeding score: 2 = bloody stool, 4 = gross bleeding; for Diarrheal score: 2 = loose stools, 4 = diarrhea
From the text: To assess the in vivo efficacy for preventive and therapeutic activities of these compounds on IBD, two experiments were designed and tested using the dextran sulfate sodium (DSS) experimental mouse model for human IBD.
For the therapeutic experiment a further experiment was done to test different doses of 9A on severe, acute intestinal inflammation in mice induced by a high dose of DSS (5%). In this experiment, drug treatment started from day 3 post DSS induction when disease symptom was established. 9A (200 mg/kg or 100 mg/kg) was administered through oral […] once daily and a commercial drug, sulfasalazine (SASP, 100 mg/kg/day) was used as positive control. Experiment was terminated at day 7 and the efficacy was assessed.

CC(C)c1c(O)cc(/C=C/c2ccccc2)cc1O [Compound 9A, 3,5-Dihydroxy-4-isopropyl-trans-stilbene]
effect on psoriasis, volunteer 1 (scalp psoriasis) (psoriasis): completely clearance in 7 days | effect on psoriasis, volunteer 2 (plaques on back) (psoriasis): significant improvement of the psoriasis | effect on eczema, volunteer 3 (eczema): disease symptoms completely disappeared by week 2 | % edema inhibition (TPA-induced ear edema): 8% | macroscopic and microscopic diseases scores (DSS-induced IBD): significantly decreased | Bleeding score ([1]; 100 mg/kg oral daily): 3.3 ± 0.37 | Diarrheal score ([1]; 100 mg/kg oral daily): 2.0 ± 0.73 | Bleeding score ([1]; 200 mg/kg oral daily): 3.2 ± 0.49 | Diarrheal score ([1]; 200 mg/kg oral daily): 2.4 ± 0.45 | survival rate vs control treatment ([1]; 5% DSS, treatment from day 3): significantly higher survival rate | survival rate ([1]; daily oral treatment from day 3 post 5% DSS, vehicle control 33%): 67%
